# Measured values from patent US8822407B2, “Preparation of conjugates comprising adenine derivatives and allergenic proteins and their use for specific immunotherapy of allengenic diseases” (Universita' Degli Studi di Firenze, priority 2010, dated 2014).
# Columns and labels:
# purified BDCA4+ cells = assay: Cytokine production by purified BDCA4+ cells (plasmacytoid dendritic cells), ELISA; assay type: cell-based, human
# Method: The preparation of purified BDCA4+ cells has been obtained in a similar way starting from MNC of buffy coats of the same 14 healthy donors. […] By positive selection 5×10^6 plasmacytoid dendritic cells (PDCs) are recovered, extensively washed with calcium and magnesium-free sterile PBS and seeded in complete medium plus 10% foetal calf serum in 24-flat bottomed plates at the concentration 1×10^6/ml. […] The plates are incubated for 36 hrs at 37° C. in 5% CO2 humidified atmosphere and the supernatants are collected after centrifugation at 1200 rpm, aliquoted and then stored at −20° C. up to the assay. […]
# (§1) For the determination of cytokines and chemokines of the innate immunity, commercial ELISAs have been used: IL-12p40 (Cytoscreen, Biosource Int, Camarillo, Calif.), IFN-alfa (Cytoscreen), TNF-alfa (Cytoscreen), IL-10 (Pharmingen), IL-6 and CXCL10 (R&D System). 100 μl/well of single supernatants are incubated in flat bottomed plates as specified by the productors and the amounts of the single cytokines are expressed as pg/ml on the basis of a reference curve by using recombinant cytokines.
# purified CD14+ cells = assay: Cytokine production by purified CD14+ cells (ELISA of supernatants, 36 hrs); assay type: cell-based, human; settings: Table B, dose 2 μg/ml
# Method: Circulating mononuclear cells (MNC) are isolated by density gradient (Ficoll-Hypaque) using buffy coats from 14 normal donors (Servizio Immunotrasfusionale e terapie cellulari, Azienda Ospedaliera Universitaria A. Meyer, Firenze). 200×10^6 MNC are separated by the use of a commercial kit (CD14 isolation kit, Miltenyi) by the addition of 400 μl anti-CD14 monoclonal antibody bound to iron beads followed by isolation on magnetic columns (LS column). 50×10^6 monocytes are recovered by positive selection and are extensively washed with calcium and magnesium-free sterile PBS and then seeded in complete medium plus 10% foetal calf serum in 24 flat bottomed plates at the concentration of 1×10^6/ml. […] The plates are incubated for 36 hrs at 37° C. in 5% CO2 humidified atmosphere and the supernatants are collected after centrifugation at 1200 rpm, aliquoted and then stored at −20° C. up to the assay. […]
# as §1
# human TLR7 = target: T1, human TLR7 (Homo sapiens, UniProt Q9NYK1); assay: TLR7 activation, NF-kB luciferase reporter in transfected HEK293 cells; assay type: cell-based; settings: human TLR7-encoding plasmid
# T1 construct: expressed in transfected cells; host or cells: HEK293 (transient Nucleofection, Amaxa)
# T1 sequence (Q9NYK1 27-1049): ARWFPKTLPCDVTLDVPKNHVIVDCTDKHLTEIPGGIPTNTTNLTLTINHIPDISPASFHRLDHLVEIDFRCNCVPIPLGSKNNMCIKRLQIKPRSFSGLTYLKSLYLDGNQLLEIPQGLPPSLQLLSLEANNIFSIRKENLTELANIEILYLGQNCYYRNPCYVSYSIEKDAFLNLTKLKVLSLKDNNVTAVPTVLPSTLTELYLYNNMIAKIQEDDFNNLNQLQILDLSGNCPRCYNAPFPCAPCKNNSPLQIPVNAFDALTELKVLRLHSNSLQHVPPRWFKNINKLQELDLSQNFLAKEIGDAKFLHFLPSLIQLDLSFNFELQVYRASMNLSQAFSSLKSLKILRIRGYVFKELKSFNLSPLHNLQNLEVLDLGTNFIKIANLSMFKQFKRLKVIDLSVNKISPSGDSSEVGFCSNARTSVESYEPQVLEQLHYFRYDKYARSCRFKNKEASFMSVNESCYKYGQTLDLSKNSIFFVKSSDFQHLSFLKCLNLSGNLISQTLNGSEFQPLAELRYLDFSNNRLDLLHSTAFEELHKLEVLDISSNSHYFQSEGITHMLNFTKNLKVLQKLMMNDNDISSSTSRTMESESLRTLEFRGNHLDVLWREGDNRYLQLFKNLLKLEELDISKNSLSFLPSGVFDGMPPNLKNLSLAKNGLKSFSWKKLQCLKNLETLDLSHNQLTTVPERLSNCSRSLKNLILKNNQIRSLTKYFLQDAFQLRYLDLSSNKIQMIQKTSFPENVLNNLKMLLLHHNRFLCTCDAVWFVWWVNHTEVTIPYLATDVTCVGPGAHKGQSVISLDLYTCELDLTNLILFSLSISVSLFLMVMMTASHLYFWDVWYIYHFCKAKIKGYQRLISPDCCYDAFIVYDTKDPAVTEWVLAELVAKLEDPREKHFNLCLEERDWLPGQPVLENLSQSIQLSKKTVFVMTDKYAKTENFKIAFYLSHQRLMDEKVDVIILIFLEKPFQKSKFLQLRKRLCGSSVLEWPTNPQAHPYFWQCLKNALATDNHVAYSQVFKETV
# Method: HEK293 cells are detached by trypsin from the plastic surface of the culture bottle, extensively washed with calcium and magnesium-free PBS, counted and adjusted at the concentration 1×10^6 cells/tube in polypropylene V-bottomed tubes. After the final wash, the cells are pelleted and 100 μl transfection buffer (Amaxa) is added together with […], TLR7, TLR8 or TLR9-encoding and ELAM-1 promoter NF-kB luciferase reporter plasmids. The mixture thus obtained is transferred in special cuvettes and transient transfection is obtained in a special apparatus which is able to directly introduce genetic material into the nucleus (Nucleofection®, Amaxa GmbH). The cells are then recovered and cultured at 1×10^5/ml in 48-flat bottomed plates in E-MEM medium plus 5% foetal calf serum for 18 hrs. […] Finally the luciferase activity is measured in the cellular lysates by a commercial kit (Promega).
# [1] = Table C, Donor #1, R-848, dose not printed in table (2 μg/ml elsewhere in the source)
# [2] = Table C, Donor #2, R-848 (2 μg/ml)
# [3] = Table F, Donor #1, dose 2 μg/ml
# [4] = Table F, Donor #2, dose 2 μg/ml
structure (smiles),measurement,setting,value
"CCOCc1nc2c(N)nc3ccccc3c2n1CC(C)(C)O [Conj R-848, reference compound]",IFN-alfa production,purified BDCA4+ cells; [1],3154 pg/mL
same,IL-6 production,purified BDCA4+ cells; [1],746 pg/mL
same,IL-10 production,purified BDCA4+ cells; [1],1500 pg/mL
same,TNF-alfa production,purified BDCA4+ cells; [1],10368 pg/mL
same,IFN-alfa production,purified BDCA4+ cells; [2],6187 pg/mL
same,IL-6 production,purified BDCA4+ cells; [2],308 pg/mL
same,IL-10 production,purified BDCA4+ cells; [2],753 pg/mL
same,TNF-alfa production,purified BDCA4+ cells; [2],20990 pg/mL
same,IFN-alfa production (mean ± SE),"purified BDCA4+ cells; Table D, dose 2 μg/ml",5.6 ± 2.5 ng/mL
same,IL-6 production (mean ± SE),"purified BDCA4+ cells; Table D, dose 2 μg/ml",7.7 ± 2.6 ng/mL
same,IL-10 production (mean ± SE),"purified BDCA4+ cells; Table D, dose 2 μg/ml",1.0 ± 0.6 ng/mL
same,TNF-alfa production (mean ± SE),"purified BDCA4+ cells; Table D, dose 2 μg/ml",5.4 ± 1.4 ng/mL
same,IFN-alfa production,purified BDCA4+ cells; [3],1131 pg/mL
same,IL-6 production,purified BDCA4+ cells; [3],44302 pg/mL
same,IL-10 production,purified BDCA4+ cells; [3],1864 pg/mL
same,TNF-alfa production,purified BDCA4+ cells; [3],4832 pg/mL
same,IFN-alfa production,purified BDCA4+ cells; [4],1605 pg/mL
same,IL-6 production,purified BDCA4+ cells; [4],37603 pg/mL
same,IL-10 production,purified BDCA4+ cells; [4],1305 pg/mL
same,TNF-alfa production,purified BDCA4+ cells; [4],6898 pg/mL
same,cytokine production from BDCA4+ cells (in words),purified BDCA4+ cells; text to Tables C and D,"high levels of IFN-alfa, IL-10 and CXCL10"
same,IL-6 production (mean ± SE),purified CD14+ cells,45.8 ± 15.2 ng/mL
same,IL-10 production (mean ± SE),purified CD14+ cells,2.0 ± 0.5 ng/mL
same,IL-12p40 production (mean ± SE),purified CD14+ cells,16.9 ± 6.3 ng/mL
same,TNF-alfa production (mean ± SE),purified CD14+ cells,16.3 ± 4.9 ng/mL
same,TLR7 activation (NF-κB luciferase) in transfected HEK293 cells,human TLR7,able to induce NF-κB expression
